Results reported in US20130295145A1, “TOPICAL PHARMACEUTICAL COMPOSITIONS COMPRISING ETODOLAC” (CADILA HEALTHCARE LIMITED, priority 2010, published 2013).

Assay: Stability study on nanogel composition of Example 1 (storage at 40° C. and 75% relative humidity)
Type: physicochemical
Conditions: for % Drug in the formulation, 1 Month / % Drug in the formulation, 2 Month / % Drug in the formulation, 3 Month: 40° C. and 75% relative humidity; for % Drug in the formulation, 2 Month: 2 months; for % Drug in the formulation, 3 Month: 3 months
Excerpt: Stability Study on Nanogel Composition of Example 1

[1] = nanogel Formulation 1 of Example 1
[2] = nanogel Formulation 2 of Example 1

Row | Compound | % Drug in the formulation, 1 Month [1] [%] | % Drug in the formulation, 2 Month [1] [%] | % Drug in the formulation, 3 Month [1] [%] | % Drug in the formulation, Initial [1] [%] | % Drug in the formulation, 1 Month [2] [%] | % Drug in the formulation, 2 Month [2] [%] | % Drug in the formulation, 3 Month [2] [%] | % Drug in the formulation, Initial [2] [%]
1 | CCc1cccc2c3c([nH]c12)C(CC)(CC(=O)O)OCC3 (racemic) [Etodolac, (RS)-2-(1,8-Diethyl-4,9-dihydro-3H-pyrano[3,4-b]indol-1-yl)acetic acid] | 99.5 | 97.7 | 95.9 | 101.6 | 97.6 | 103.0 | 102.3 | 100.4
2 | COC(=O)c1ccccc1O [Methyl salicylate] | 100.9 | 95.2 | 93.2 | 97.3 | 101.2 | 97.7 | 97.2 | 100.2
